Values quoted from earlier work as cited in patent US20170333571A1, “Targeted Delivery Platform for Delivery of Therapeutics” (The Regents of the University of California, priority 2014, published 2017).
No end group written: not given here.

System: colitis-induced inflammation
Details: exogenous administration, rats and mice

Ucn1: small peptide (~38 aa), Urocortin 1 (DNPSLSIDLTFHLLRTLLELARTQSQRERAEQNRIIFDSV; ends and bridges not checked; also: 5FAM label, position not given here (in delivery test); UniProt P55089 83-122, looked up)
colitis-induced inflammation: reduces colitis-induced inflammation
